Measured values reported in the NIST ThermoML archive (doi:10.1016/j.jct.2010.05.002).

Assays:
[1] = for vapor or sublimation pressure: Transpiration method; for Triple point temperature: Adiabatic calorimetry
[2] = Molar enthalpy of transition or fusion; details: Crystal; Adiabatic calorimetry

CC(C)(C)c1ccc(-c2ccccc2)cc1 [4-(1,1-dimethylethyl)-1,1'-biphenyl]
[1]
Details	vapor or sublimation pressure [kPa]
301 K, Crystal	8.2e-05
303.9 K, Crystal	0.000119
305.9 K, Crystal	0.000156
307.9 K, Crystal	0.000203
310.9 K, Crystal	0.000285
312.9 K, Crystal	0.000369
313.8 K, Crystal	0.000417
315.8 K, Crystal	0.000507
318.8 K, Crystal	0.000708
319.8 K, Crystal	0.000814
320.2 K, Crystal	0.000843
321.7 K, Crystal	0.001012
322.7 K, Crystal	0.001146
323.2 K, Crystal	0.001207
325.2 K, Crystal	0.0015
326.2 K, Crystal	0.00168
327.4 K, Liquid	0.00187
331.5 K, Liquid	0.00263
334.4 K, Liquid	0.00326
336.6 K, Liquid	0.00389
338 K, Liquid	0.00428
338.8 K, Liquid	0.00465
340.5 K, Liquid	0.00532
341.6 K, Liquid	0.00563
343.7 K, Liquid	0.00682
343.8 K, Liquid	0.00673
346.6 K, Liquid	0.00813
347.2 K, Liquid	0.00852
347.6 K, Liquid	0.00864
348.8 K, Liquid	0.00962
349.8 K, Liquid	0.0103
350.4 K, Liquid	0.0106
352.8 K, Liquid	0.01272
354.8 K, Liquid	0.01441
357.4 K, Liquid	0.01733
360.2 K, Liquid	0.02099
362.6 K, Liquid	0.025
364.9 K, Liquid	0.02919
367.4 K, Liquid	0.03524
370 K, Liquid	0.04103
371.2 K, Liquid	0.04325
372.6 K, Liquid	0.04776
373.9 K, Liquid	0.05134
375.3 K, Liquid	0.05672
376.7 K, Liquid	0.05953
378 K, Liquid	0.06614

Details	Triple point temperature [K]
[1], Crystal	324.76

Details	Molar enthalpy of transition or fusion [kcal/mol]
[2]	4.75

Cc1ccc(-c2ccccc2)cc1 [4-methylbiphenyl]
[1], Liquid
Details	vapor or sublimation pressure [kPa]
323.2 K	0.00854
325.4 K	0.01016
327.2 K	0.01156
329.7 K	0.01376
332.2 K	0.01664
334.6 K	0.01979
336.2 K	0.02224
338.7 K	0.02634
341.6 K	0.03282
344.1 K	0.03851
346.4 K	0.04496
349 K	0.05244
351.2 K	0.06003
353.2 K	0.0695

Details	Triple point temperature [K]
[1], Crystal	320.33

Details	Molar enthalpy of transition or fusion [kcal/mol]
[2]	2.94
